# Laboratory results published in ChEMBL document CHEMBL3585308, “Discovery and Modification of in Vivo Active Nrf2 Activators with 1,2,4-Oxadiazole Core: Hits Identification and Structure-Activity Relationship Study” (J Med Chem, 2015).
# Key:
# [1] = target: T1, Nuclear factor erythroid 2-related factor 2 (Homo sapiens) (UniProt Q16236); assay: Activation of Nrf2 in human HepG2-ARE-C8 cells assessed as upregulation of ARE level at 0.02 uM after 12 hrs by luciferase reporter gene assay relative to control; assay type: cell-based
# T1 sequence (whole entry): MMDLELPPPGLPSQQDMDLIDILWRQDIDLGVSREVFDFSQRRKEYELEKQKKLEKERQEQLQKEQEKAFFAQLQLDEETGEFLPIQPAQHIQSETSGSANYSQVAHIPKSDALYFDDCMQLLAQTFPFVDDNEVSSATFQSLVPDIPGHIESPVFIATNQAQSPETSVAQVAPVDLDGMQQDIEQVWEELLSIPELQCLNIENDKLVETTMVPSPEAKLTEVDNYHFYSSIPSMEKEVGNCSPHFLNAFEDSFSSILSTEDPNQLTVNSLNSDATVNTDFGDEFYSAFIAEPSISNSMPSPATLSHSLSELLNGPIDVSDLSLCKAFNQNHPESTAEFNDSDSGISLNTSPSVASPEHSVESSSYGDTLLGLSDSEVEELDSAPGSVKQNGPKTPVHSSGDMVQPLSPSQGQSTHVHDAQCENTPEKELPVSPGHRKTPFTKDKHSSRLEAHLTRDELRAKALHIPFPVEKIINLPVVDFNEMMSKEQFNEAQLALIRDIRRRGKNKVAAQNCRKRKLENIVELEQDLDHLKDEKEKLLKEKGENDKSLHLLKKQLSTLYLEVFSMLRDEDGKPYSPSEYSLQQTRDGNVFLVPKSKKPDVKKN
# [2] = Chemical stability assessed as compound degradation after 2 weeks; assay type: physicochemical; conditions: 336 h
# [3] = target: T1, Nuclear factor erythroid 2-related factor 2 (Homo sapiens); assay: Activation of Nrf2 in human HepG2-ARE-C8 cells assessed as upregulation of ARE level at 40 uM after 12 hrs by luciferase reporter gene assay relative to control; assay type: cell-based
# [4] = target: T1, Nuclear factor erythroid 2-related factor 2 (Homo sapiens); assay: Activation of Nrf2 in human HepG2-ARE-C8 cells assessed as upregulation of ARE level at 20 uM after 12 hrs by luciferase reporter gene assay relative to control; assay type: cell-based
# [5] = target: T1, Nuclear factor erythroid 2-related factor 2 (Homo sapiens); assay: Activation of Nrf2 in human HepG2-ARE-C8 cells assessed as upregulation of ARE level at 0.2 uM after 12 hrs by luciferase reporter gene assay relative to control; assay type: cell-based
# [6] = target: T1, Nuclear factor erythroid 2-related factor 2 (Homo sapiens); assay: Activation of Nrf2 in human HepG2-ARE-C8 cells assessed as upregulation of ARE level at 160 uM after 12 hrs by luciferase reporter gene assay relative to control; assay type: cell-based
# HCT-116 [7] = assay: Cytotoxicity against human HCT116 cells assessed as reduction of cell proliferation at 80 uM after 24 hrs by MTT assay; assay type: cell-based; conditions: hct-116, 24 h
# [8] = target: T1, Nuclear factor erythroid 2-related factor 2 (Homo sapiens); assay: Activation of Nrf2 in human HepG2-ARE-C8 cells assessed as upregulation of ARE level at 2 uM after 12 hrs by luciferase reporter gene assay relative to control; assay type: cell-based
# [9] = target: T1, Nuclear factor erythroid 2-related factor 2 (Homo sapiens); assay: Activation of Nrf2 in human HepG2-ARE-C8 cells assessed as upregulation of ARE level at 80 uM after 12 hrs by luciferase reporter gene assay relative to control; assay type: cell-based
# HCT-116 [10] = assay: Cytotoxicity against human HCT116 cells assessed as effect on cell proliferation at 5 to 80 uM after 24 hrs by MTT assay; assay type: cell-based; conditions: hct-116, 24 h
# [11] = Dissociation constant, pKa of the compound by potentiometric titration method; assay type: physicochemical
# [12] = Intrinsic aqueous solubility of the compound by potentiometric titration method; assay type: physicochemical; conditions: read-out: Intrinsic_solubility
# [13] = Lipophilicity, log D of the compound at pH 7.4 by potentiometric titration method; assay type: physicochemical; conditions: buffer
# [14] = Permeability of the compound at pH 7.4 by PAMPA; assay type: physicochemical; conditions: read-out: permeability
SMILES,fold change (FC) [1],Stability [2],fold change (FC) [3],fold change (FC) [4],fold change (FC) [5],fold change (FC) [6],Activity (HCT-116 [7]),fold change (FC) [8],fold change (FC) [9],Activity (HCT-116 [10]),pKa [11],solubility [12] [µM],logD [13],Papp [14] [nm/s]
O=[N+]([O-])c1ccccc1-c1nc(-c2ccc3nc[nH]c3c2)no1,1.73,Unstable,53.6,36.6,3.76,38.4,Non-toxic,12.1,42.6,,,,,
Cn1nnc2ccc(-c3noc(-c4ccc(F)cc4)n3)cc21,1.46,,5.96,3.88,1.83,8.36,,3.17,5.48,Non-toxic,,,,
FC(F)(F)c1ccccc1-c1nc(-c2ccc3nc[nH]c3c2)no1,1.23,,24.2,19.1,2.28,3.73,Non-toxic,9.01,17.9,,4,14,4.01,47.8
c1ccc2cc(-c3nc(-c4ccc5nc[nH]c5c4)no3)ccc2c1,1.42,,7.57,6.72,1.23,16.2,Non-toxic,3.47,13.4,,4.22,2.5,5.56,86.4
CC(C)NCC(O)COc1cccc2ccccc12 (stereo not given) [PROPRANOLOL],,,,,,,,,,,,,,1170
Clc1ccc(-c2nc(-c3ccc4nc[nH]c4c3)no2)cc1,2.03,,18.5,15.5,2.79,14.2,Non-toxic,7.25,14.1,,3.77,49.5,3.71,103
N#Cc1cccc(-c2nc(-c3ccc4nc[nH]c4c3)no2)c1,1.26,,0.91,0.87,1.36,8.05,Non-toxic,1.42,3.16,,,,,
COc1ccc(-c2nc(-c3ccc4nc[nH]c4c3)no2)cc1,1.43,,13,9.84,2.72,5.52,Non-toxic,3.27,4.92,,,,,
